Test results as given in ChEMBL document CHEMBL1153668, “3-Pyridines as replacements for an isoxazole ring: The antirhinoviral activity of pyridine analogues related to disoxaril” (Bioorg Med Chem Lett, 1995).
Converted amounts (≈) assume the structure as drawn. The source made the active and inactive calls. The rule behind the calls is not given here.

What was measured:
[1] = system: Human rhinovirus sp.; assay: Antirhinoviral activity against Human Rhinovirus R2; type: functional
[2] = system: Human rhinovirus sp.; assay: Antirhinoviral activity against Human Rhinovirus R21; type: functional
[3] = system: Human rhinovirus sp.; assay: Antirhinoviral activity against Human Rhinovirus R22; type: functional
[4] = system: Human rhinovirus sp.; assay: Antirhinoviral activity against Human Rhinovirus R25; type: functional
[5] = system: Human rhinovirus sp.; assay: Antirhinoviral activity against Human Rhinovirus R30; type: functional
[6] = system: Human rhinovirus sp.; assay: Antirhinoviral activity against Human Rhinovirus R41; type: functional
[7] = system: Human rhinovirus sp.; assay: Antirhinoviral activity against Human Rhinovirus R50; type: functional
[8] = system: Human rhinovirus sp.; assay: Antirhinoviral activity against Human Rhinovirus R6; type: functional
[9] = system: Human rhinovirus sp.; assay: Antirhinoviral activity against Human Rhinovirus R67; type: functional
[10] = system: Human rhinovirus sp.; assay: Antirhinoviral activity against Human Rhinovirus R86; type: functional
[11] = system: Human rhinovirus sp.; assay: Antirhinoviral activity against Human Rhinovirus R89; type: functional
[12] = system: Human rhinovirus sp.; assay: Antirhinoviral activity against Human Rhinovirus R14; type: functional
[13] = system: Human rhinovirus sp.; assay: Antirhinoviral activity against Human Rhinovirus R15; type: functional
[14] = system: Human rhinovirus sp.; assay: Antirhinoviral activity against Human Rhinovirus R1A; type: functional
[15] = system: Human rhinovirus sp.; assay: Antirhinoviral activity against Human Rhinovirus R1B; type: functional
[16] = system: Human rhinovirus sp.; assay: Antirhinoviral activity against Human Rhinovirus R41; Not active; type: functional, organism-based
[17] = system: Human rhinovirus sp.; assay: Antirhinoviral activity against Human Rhinovirus R6; Not active; type: functional, organism-based
[18] = system: Human rhinovirus sp.; assay: Antirhinoviral activity against Human Rhinovirus R86; Not active; type: functional, organism-based
[19] = system: Human rhinovirus sp.; assay: Antirhinoviral activity against Human Rhinovirus serotypes R1A, R1B, R2, R6, R14, R15, R21, R22, R25, R30, R41, R50, R67, R86 and R89.; type: functional
[20] = system: Human rhinovirus sp.; assay: Antirhinoviral activity against Human Rhinovirus R14; Not active; type: functional, organism-based
[21] = Partition coefficient (logP); type: physicochemical; details: octanol/water
[22] = system: Human rhinovirus sp.; assay: Antirhinoviral activity against Human Rhinovirus serotypes R1A, R1B, R2, R6, R14, R15, R21, R22, R25, R30, R41, R50, R67, R86 and R89; Inactive against HRV-86; type: functional, organism-based
[23] = system: Human rhinovirus sp.; assay: Antirhinoviral activity against Human Rhinovirus serotypes R1A, R1B, R2, R6, R14, R15, R21, R22, R25, R30, R41, R50, R67, R86 and R89; type: functional
[24] = system: Human rhinovirus sp.; assay: Antirhinoviral activity against Human Rhinovirus serotypes R1A, R1B, R2, R6, R14, R15, R21, R22, R25, R30, R41, R50, R67, R86 and R89; Inactive against HRV-6, 14, 86; type: functional, organism-based

SMILES	MIC [1] [µM]	MIC [2] [µM]	MIC [3] [µM]	MIC [4] [µM]	MIC [5] [µM]	MIC [7] [µM]	MIC [9] [µM]	MIC [10] [µM]	MIC [11] [µM]	MIC [12] [µM]	MIC [13] [µM]	MIC [14] [µM]	MIC [15] [µM]	Mean activity [19] [µM]	logP [21]	other results
Cc1cc(CCCCCOc2c(C)cc(-c3nnn(C)n3)cc2C)on1	0.04 (≈ 0.0142 µg/mL)	0.04 (≈ 0.0142 µg/mL)	0.08 (≈ 0.0284 µg/mL)	0.31 (≈ 0.11 µg/mL)	0.11 (≈ 0.0391 µg/mL)	0.23 (≈ 0.0818 µg/mL)	0.35 (≈ 0.124 µg/mL)	0.84 (≈ 0.299 µg/mL)	0.04 (≈ 0.0142 µg/mL)	0.62 (≈ 0.22 µg/mL)	0.77 (≈ 0.274 µg/mL)	0.42 (≈ 0.149 µg/mL)	0.1 (≈ 0.0355 µg/mL)	–	–	MIC [6]: 1.43 µM (≈ 0.508 µg/mL); MIC [8]: 0.98 µM (≈ 0.348 µg/mL)
Cc1cc(-c2nnn(C)n2)cc(C)c1OCCCCCc1cccnc1	0.2 (≈ 0.0703 µg/mL)	0.03 (≈ 0.0105 µg/mL)	0.17 (≈ 0.0597 µg/mL)	0.04 (≈ 0.0141 µg/mL)	0.17 (≈ 0.0597 µg/mL)	2.28 (≈ 0.801 µg/mL)	0.37 (≈ 0.13 µg/mL)	1.08 (≈ 0.38 µg/mL)	0.03 (≈ 0.0105 µg/mL)	1.05 (≈ 0.369 µg/mL)	1.25 (≈ 0.439 µg/mL)	0.28 (≈ 0.0984 µg/mL)	0.1 (≈ 0.0351 µg/mL)	–	–	MIC [6]: 2.16 µM (≈ 0.759 µg/mL); MIC [8]: 0.82 µM (≈ 0.288 µg/mL)
Cc1cc(-c2nnn(C)n2)cc(C)c1OCCCCCc1ccccn1	0.34 (≈ 0.119 µg/mL)	0.05 (≈ 0.0176 µg/mL)	0.21 (≈ 0.0738 µg/mL)	0.08 (≈ 0.0281 µg/mL)	0.25 (≈ 0.0879 µg/mL)	0.36 (≈ 0.127 µg/mL)	1.19 (≈ 0.418 µg/mL)	–	0.06 (≈ 0.0211 µg/mL)	3.84 (≈ 1.35 µg/mL)	1.91 (≈ 0.671 µg/mL)	0.66 (≈ 0.232 µg/mL)	0.11 (≈ 0.0387 µg/mL)	–	–	MIC [16]: inactive; MIC [17]: inactive; MIC [18]: inactive
Cc1ccc(CCCOc2c(C)cc(-c3nnn(C)n3)cc2C)cn1	–	–	–	–	–	–	–	–	–	–	–	–	–	0.54	–	–
Cc1cc(-c2nnn(C)n2)cc(C)c1OCCCCCc1ccncc1	0.26 (≈ 0.0914 µg/mL)	0.08 (≈ 0.0281 µg/mL)	0.2 (≈ 0.0703 µg/mL)	0.11 (≈ 0.0387 µg/mL)	0.36 (≈ 0.127 µg/mL)	0.36 (≈ 0.127 µg/mL)	0.51 (≈ 0.179 µg/mL)	0.43 (≈ 0.151 µg/mL)	0.07 (≈ 0.0246 µg/mL)	–	2.13 (≈ 0.749 µg/mL)	0.68 (≈ 0.239 µg/mL)	0.27 (≈ 0.0949 µg/mL)	–	–	MIC [16]: inactive; MIC [17]: inactive; MIC [20]: inactive
Cc1cc(CCCOc2c(C)cc(-c3nnn(C)n3)cc2C)on1	–	–	–	–	–	–	–	–	–	–	–	–	–	0.73	–	–
Cc1noc(-c2cc(C)c(OCCCc3cccnc3)c(C)c2)n1	–	–	–	–	–	–	–	–	–	–	–	–	–	–	3.3	Mean activity [22]: inactive
Cc1cc(CCCOc2c(C)cc(-c3nc(C)no3)cc2C)on1	–	–	–	–	–	–	–	–	–	–	–	–	–	–	3.2	Mean activity [23]: 0.22 µM
Cc1cc(-c2nnn(C)n2)cc(C)c1OCCCc1cccnc1	–	–	–	–	–	–	–	–	–	–	–	–	–	–	–	Mean activity [24]: inactive
Cc1ccc(CCCOc2c(C)cc(-c3nc(C)no3)cc2C)cn1	–	–	–	–	–	–	–	–	–	–	–	–	–	0.25	3.8	–
